Assay results reported in US6458769B1, “Amorphous compound” (AstraZeneca AB, priority 2001, dated 2002).
One block for each compound: values may come before it.

What was measured:
[1] = cited from earlier work
[2] = Solubility determination by titrating deionised water, assessed visually; format: physicochemical; conditions: visual, lower limit = soluble, upper limit = undissolved material present
Description: Solubility was assessed using known quantities (approx 1 mg) and titrating small volumes (2-40 microlitres) of deionised water and assessed visually. The data given are ranges. The lower limit represents soluble and upper limit the presence of undissolved material.

[3] = Differential Scanning Calorimetry (DSC) glass transition; format: physicochemical; conditions: dry amorphous lisinopril, anomalous endotherm
Description: Differential Scanning Calorimetry (DSC) was performed on approximately 0.5-3 mg sample, using a Mettler DSC820 instrument, according to standard methods, for example those described in Hohne et al. (1996) Differential scanning Calorimetry, Springer, Berlin.

[4] = Thermal Mechanical Analysis (TMA) glass transition point; format: physicochemical; conditions: compressed pellet, heating rate 10° C./min, 30-160° C.
Description: The method involves compressing 140 mg of material in a punch and die (3 mm) to 2 KN. The compressed pellet was then placed on the TMA and the 1.1 mm probe placed on the top face. A heating rate of 10° C./min was used and the sample was heated from 30-160° C.

[5] = literature value, Ip et al. 1992; cited from earlier work

Compound: NCCCC[C@H](NC(CCc1ccccc1)C(=O)O)C(=O)N1CCC[C@H]1C(=O)O (stereo partly drawn) [lisinopril, (S)-1-[N^2-(1-carboxy-3-phenylpropyl]-L-lysyl]-L-proline]
effective half-life of accumulation ([1]; multiple dosing): about 12.6 hours
time to peak serum concentrations ([1]; oral administration): ≤ 7 h

solubility ([2]; listed as Amorphous): 900 to 1250 mg/mL
glass transition temperature (Tg) by DSC [3]: 125 °C
glass transition temperature by TMA [4]: 129 °C
Compound: NCCCC[C@H](NC(CCc1ccccc1)C(=O)O)C(=O)N1CCC[C@H]1C(=O)O (stereo partly drawn) [amorphous lisinopril, (S)-1-[N^2-(1-carboxy-3-phenylpropyl]-L-lysyl]-L-proline]

solubility [2]: 60 to 65 mg/mL
Compound: NCCCC[C@H](NC(CCc1ccccc1)C(=O)O)C(=O)N1CCC[C@H]1C(=O)O (stereo partly drawn) [Dihydrate, (S)-1-[N^2-(1-carboxy-3-phenylpropyl]-L-lysyl]-L-proline]
Reference solubility (mg/ml) [5]: 97^1 mg/ml
